The record followed here is patent US20030166932A1 (priority 2002, published 2003).

Some results are limits rather than exact numbers.

Assay [1] addresses T1, RARβ (Homo sapiens, UniProt P10826).
T1 sequence (P10826 1-455): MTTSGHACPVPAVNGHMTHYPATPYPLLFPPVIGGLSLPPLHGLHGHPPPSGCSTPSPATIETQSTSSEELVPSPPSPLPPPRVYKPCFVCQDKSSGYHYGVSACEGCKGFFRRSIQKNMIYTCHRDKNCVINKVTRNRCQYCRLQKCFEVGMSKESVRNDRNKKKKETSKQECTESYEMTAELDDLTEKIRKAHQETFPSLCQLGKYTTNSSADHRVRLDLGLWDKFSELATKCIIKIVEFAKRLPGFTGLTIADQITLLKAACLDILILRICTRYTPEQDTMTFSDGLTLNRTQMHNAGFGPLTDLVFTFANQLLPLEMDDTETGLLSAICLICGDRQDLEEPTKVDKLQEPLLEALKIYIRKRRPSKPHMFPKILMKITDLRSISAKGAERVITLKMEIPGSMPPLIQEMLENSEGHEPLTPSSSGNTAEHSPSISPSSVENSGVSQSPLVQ
Kind of assay: ligand binding assay. The conditions noted are these: read-out: RAR Bind. Ki (nM) β.
Description: (§1) The results obtained in this assay are expressed in EC50 numbers, as they are also in the chimeric receptor transactivation assay. The results of ligand binding assay are expressed in Kd numbers.
(§2) Particularly, the transactivation data pertaining to RAR receptors were obtained in the chimeric assay, and the data pertaining to transactivation of RXR receptors were obtained in the holoreceptor transactivation assay.

In assay [2] the target is T2, RXRβ (UniProt P28704).
T2 sequence (P28704 1-520): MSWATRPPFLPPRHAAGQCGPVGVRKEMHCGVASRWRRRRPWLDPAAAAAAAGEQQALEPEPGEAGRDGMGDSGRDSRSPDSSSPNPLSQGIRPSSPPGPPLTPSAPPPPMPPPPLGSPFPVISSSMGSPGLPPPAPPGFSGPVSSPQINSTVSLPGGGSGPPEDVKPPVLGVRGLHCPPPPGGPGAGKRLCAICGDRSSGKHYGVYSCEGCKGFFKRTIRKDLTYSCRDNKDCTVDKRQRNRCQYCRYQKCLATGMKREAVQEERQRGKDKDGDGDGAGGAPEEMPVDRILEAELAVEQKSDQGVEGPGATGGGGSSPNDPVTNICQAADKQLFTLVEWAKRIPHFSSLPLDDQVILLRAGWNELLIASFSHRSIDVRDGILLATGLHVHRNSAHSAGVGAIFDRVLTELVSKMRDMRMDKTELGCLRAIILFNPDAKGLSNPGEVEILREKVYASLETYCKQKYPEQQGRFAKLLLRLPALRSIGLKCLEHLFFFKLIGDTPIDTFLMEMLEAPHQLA
Kind of assay: ligand binding assay. Particulars: read-out: RXR Bind Ki (nM) β.
Description: as §1, §2

The target in assay [3] is T3, RARγ (Homo sapiens, UniProt P13631).
T3 sequence (P13631 1-454): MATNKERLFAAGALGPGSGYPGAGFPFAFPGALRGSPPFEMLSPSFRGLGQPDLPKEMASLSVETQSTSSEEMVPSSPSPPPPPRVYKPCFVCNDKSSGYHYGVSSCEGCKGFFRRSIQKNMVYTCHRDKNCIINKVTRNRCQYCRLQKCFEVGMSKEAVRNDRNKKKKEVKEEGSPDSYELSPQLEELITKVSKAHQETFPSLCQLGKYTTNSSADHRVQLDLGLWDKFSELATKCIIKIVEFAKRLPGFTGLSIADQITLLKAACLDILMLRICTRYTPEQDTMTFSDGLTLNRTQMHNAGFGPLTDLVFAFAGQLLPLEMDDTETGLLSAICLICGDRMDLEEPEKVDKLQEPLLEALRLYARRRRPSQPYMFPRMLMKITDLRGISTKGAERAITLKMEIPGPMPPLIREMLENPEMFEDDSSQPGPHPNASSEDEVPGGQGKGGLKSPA
Put plainly: ligand binding assay. Particulars: read-out: RAR Bind. Ki (nM) Y.
Description: as §1, §2

For assay [4], the target named is T4, RXRα (Homo sapiens, UniProt P19793).
T4 sequence (P19793 1-462): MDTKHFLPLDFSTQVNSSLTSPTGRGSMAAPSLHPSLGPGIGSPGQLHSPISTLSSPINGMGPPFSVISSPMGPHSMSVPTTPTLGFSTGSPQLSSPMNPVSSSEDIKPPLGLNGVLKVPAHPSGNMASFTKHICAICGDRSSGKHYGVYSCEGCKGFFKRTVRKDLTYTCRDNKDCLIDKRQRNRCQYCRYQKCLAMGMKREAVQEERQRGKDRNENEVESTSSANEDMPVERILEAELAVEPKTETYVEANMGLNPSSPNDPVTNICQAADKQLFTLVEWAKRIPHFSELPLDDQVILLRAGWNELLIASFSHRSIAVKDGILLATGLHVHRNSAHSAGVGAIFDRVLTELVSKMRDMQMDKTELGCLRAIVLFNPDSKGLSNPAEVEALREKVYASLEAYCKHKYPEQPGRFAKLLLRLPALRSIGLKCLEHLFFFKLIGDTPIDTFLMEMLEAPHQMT
Kind of assay: ligand binding assay.
Description: as §1, §2

For assay [5], the target named is T5, RXRγ (UniProt P28705).
T5 sequence (P28705 1-463): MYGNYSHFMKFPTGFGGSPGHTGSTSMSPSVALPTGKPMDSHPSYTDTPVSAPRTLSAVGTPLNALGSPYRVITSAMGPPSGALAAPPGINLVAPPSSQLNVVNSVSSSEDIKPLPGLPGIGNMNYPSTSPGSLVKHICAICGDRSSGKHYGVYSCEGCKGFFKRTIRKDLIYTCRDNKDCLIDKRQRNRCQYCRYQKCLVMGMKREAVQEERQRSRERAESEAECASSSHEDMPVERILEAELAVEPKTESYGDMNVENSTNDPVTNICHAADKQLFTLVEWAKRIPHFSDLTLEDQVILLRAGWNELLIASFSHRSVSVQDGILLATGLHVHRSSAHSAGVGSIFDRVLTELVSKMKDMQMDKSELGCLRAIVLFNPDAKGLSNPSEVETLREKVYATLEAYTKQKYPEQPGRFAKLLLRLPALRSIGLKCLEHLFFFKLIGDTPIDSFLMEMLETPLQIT
Put plainly: holoreceptor transactivation assay. It counts as cell-based. Particulars: for % efficacy, RXR Trans. Y: relative to 10^−6 M AGN 194204; for EC50: NA = Not Active, read-out: RXR Trans. EC50 (nM) Y.
Description: as §1, §2

In assay [6] the target is T4, RXRα. Kind of assay: holoreceptor transactivation assay. Particulars: for Emax: read-out: % efficacy, RXR Trans. α.
Description: as §1, §2
For assay [7], the target named is T2, RXRβ. Kind of assay: holoreceptor transactivation assay. The format is cell-based. The conditions noted are these: for EC50: NA = Not Active, read-out: RXR Trans. EC50 (nM) β; for % efficacy, RXR Trans. β: relative to 10^−6 M AGN 194204.
Description: as §1, §2

Usually Ki stands for a dissociation constant, usually derived from enzyme kinetics or from competition with a known ligand. `CCCCCCOc1cc2c(cc1N(CC)c1ccc(C(=O)O)cc1)C(C(C)C)=CCC2(C)C` [Compound 153, 4-[Ethyl-(3-n-hexyloxy-8-isopropyl-5,5-dimethyl-5,6-dihydronaphthalen-2-yl)amino]benzoic acid]: the Ki in assay [1] is 4800 nM; in assay [2], 106 nM; in assay [3], 8900 nM; in assay [4] it was 22 nM.
Turning to `CC1=CCC(C)(C)c2cc(N(CC3CC3)c3ccc(C(=O)O)cc3)c(C)cc21` [Compound 47, 4-[Cyclopropylmethyl(3,5,8,8-tetramethyl-7,8-dihydronaphthalen-2-yl)amino]benzoic acid], the Ki is more than 10000 nM in assay [1], more than 1000 nM in assay [2], more than 10000 nM in assay [3] and 2500 nM in assay [4]. Moreover, the “% efficacy, RXR Trans. Y” value in assay [5] is listed as “(70) %”. In addition, in assay [6], the Emax turned out to be 65%.
As a reminder, the EC50 is the concentration needed to bring the measured effect to its halfway point. As for `CCCCCCOc1cc2c(cc1N(CCC)c1ccc(C(=O)O)cc1)C(C)=CCC2(C)C` [Compound 145, 4-[(3-n-Hexyloxy-5,5,8-trimethyl-5,6-dihydronaphthalen-2-yl)-n-propylamino]benzoic acid], the inhibitory constant (Ki) in assay [1] came to 771 nM; in assay [2], 475 nM; in assay [3], 6000 nM; in assay [4] it was 229 nM. In addition, in assay [5], the EC50 was more than 1000 nM. Moreover, the “% efficacy, RXR Trans. Y” value in assay [5] is on record as “(10) %”.
Take `CCN(c1ccc(C(=O)O)cc1)c1cc2c(cc1OCc1ccccc1)C(C)(C)CC=C2C` [Compound 144, 4-[(3-Benzyloxy-5,5,8-trimethyl-5,6-dihydronaphthalen-2-yl)ethylamino]benzoic acid]: the inhibitory constant (Ki) is 2700 nM in assay [1], 224 nM in assay [2], 8100 nM in assay [3] and 77 nM in assay [4].
`CCN(c1ccc(C(=O)O)cc1)c1cc2c(cc1C)C(C(C)C)=CCC2(C)C` [Compound 53, 4-[Ethyl-(5-isopropyl-3,8,8-trimethyl-7,8-dihydronaphthalen-2-yl)amino]benzoic acid]: the Ki was more than 10000 nM in assay [1], more than 1000 nM in assay [2], more than 10000 nM in assay [3] and 1200 nM in assay [4]. In addition, the “% efficacy, RXR Trans. Y” value in assay [5] is reported as “(75) %”. Besides, in assay [7], the EC50 was more than 1000 nM. The “% efficacy, RXR Trans. β” value in assay [7] was “(20) %”. Besides, in assay [6], the Emax was found to be 65%.
For the compound `CCC1=CCC(C)(C)c2cc(N(CC)c3ccc(C(=O)O)cc3)c(C)cc21` [Compound 59, 4-[Ethyl(5-ethyl-3,8,8-trimethyl-7,8-dihydronaphthalen-2-yl)amino]benzoic acid], the Ki was more than 10000 nM in assay [1], more than 10000 nM in assay [3] and 282 nM in assay [4]. The “% efficacy, RXR Trans. Y” value in assay [5] is recorded as “(100) %”. The “% efficacy, RXR Trans. β” value in assay [7] is recorded as “(100) %”. Also, the Emax in assay [6] came to 100%.
For the compound `CCCCCCCOc1cc2c(cc1N(CC)c1ccc(C(=O)O)cc1)C(C)=CCC2(C)C` [Compound 143, 4[Ethyl-(3-n-heptyloxy-5,5,8-trimethyl-5,6-dihydronaphthalen-2-yl)amino]benzoic acid], the inhibition constant Ki in assay [1] worked out at 1700 nM; in assay [2] it was 449 nM; in assay [3], 8400 nM; in assay [4], 175 nM.
Take `Cc1cc2c(cc1N(C)c1ccc(C(=O)O)cc1)C(C)(C)CC=C2C(C)C` [Compound 52, 4-[Methyl-(5-isopropyl-3,8,8-trimethyl-7,8-dihydronaphthalen-2-yl)amino]benzoic acid]: the inhibition constant (Ki) was more than 10000 nM in assay [1], 2700 nM in assay [2], more than 10000 nM in assay [3] and 1700 nM in assay [4]. Also, the “% efficacy, RXR Trans. Y” value in assay [5] is recorded as “(855) %”. In addition, the EC50 in assay [7] was more than 1000 nM. Besides, the “% efficacy, RXR Trans. β” value in assay [7] is listed as “(25) %”. Besides, the Emax in assay [6] was determined as 75%.
With `CCN(c1ccc2c(c1)C(C(C)(C)C)=CCC2(C)C)c1ccc(C(=O)O)cn1` [Compound 173, 6-[(8-t-Butyl-5,5-dimethyl-5,6-dihydro-naphthalen-2-yl)-ethyl-amino]-nicotinic acid], in assay [5], the concentration giving a half-maximal response (EC50) stood at 2 nM and the “% efficacy, RXR Trans. Y” value is “(125) %”. Also, in assay [7], the EC50 was 9 nM and the “% efficacy, RXR Trans. β” value is on record as “(132) %”. For the same compound, in assay [6], the half-maximal effective concentration (EC50) was determined as 1 nM and the Emax turned out to be 120%.
Take `CCN(c1ccc(C(=O)O)cc1)c1cc2c(cc1C)C(C)(C)CC=C2C` [Compound 23, 4-[Ethyl(3,5,5,8-tetramethyl-5,6-dihydronaphthalen-2-yl)amino]benzoic acid]: the Ki in assay [1] was 16000 nM; in assay [2] it was 309 nM; in assay [4], 8 nM. The concentration for a half-maximal effect (EC50) in assay [5] was found to be 41 nM; in assay [7], 149 nM; in assay [6], 21 nM. For the same compound, in assay [5], the “% efficacy, RXR Trans. Y” value is “(119) %”. Also, in assay [7], the “% efficacy, RXR Trans. β” value was “(101) %”. Further, the Emax in assay [6] is 101%.
With `CCCN(c1ccc(C(=O)O)cc1)c1cc2c(cc1OCc1ccccc1)C(C)(C)CC=C2C` [Compound 147, 4-[(3-Benzyloxy-5 5,8-trimethyl-5,6-dihydronaphthalen-2-yl)-n-propylamino]benzoic acid], the Ki in assay [1] worked out at 4800 nM; in assay [2] it was 501 nM; in assay [3], 15000 nM; in assay [4] it was 241 nM. Further, the EC50 in assay [5] worked out at 280 nM. In assay [5], the “% efficacy, RXR Trans. Y” value is “(13) %”.
`CCCCCCCOc1cc2c(cc1N(CCC)c1ccc(C(=O)O)cc1)C(C)=CCC2(C)C` [Compound 146, 4-[(3-n-Heptyloxy-5 5,8-trimethyl-5,6-dihydronaphthalen-2-yl)-n-propylamino]benzoic acid]: the Ki in assay [1] is 576 nM; in assay [2] it was 429 nM; in assay [3], 2800 nM; in assay [4], 206 nM.
For `CCCCCCOc1cc2c(cc1N(CC)c1ccc(C(=O)O)cc1)C(C)=CCC2(C)C` [Compound 142, 4-[Ethyl-(3-n-hexyloxy-5,5,8-trimethyl-5,6-dihydronaphthalen-2-yl)amino]benzoic Acid] the same measures were 1000 nM, 111 nM, more than 1000 nM and 190 nM.
